Laboratory results from patent US20090203658A1, “NEUROACTIVE STEROID COMPOSITIONS AND METHODS OF USE THEREFOR” (Duke University, priority 2007, published 2009).
Marks after values point to notes of the source that are not given here.

What was measured:
rat frontal cortex = assay: Neuroactive steroid levels in frontal cortex after chronic lithium or valproate (GC/MS preceded by HPLC); type: in vivo, Male Wistar Kyoto rats; conditions: chronic administration four weeks, n=9
Method: Lithium and Valproate Administration.
NS analyses in rat and mouse frontal cortex were performed as described in Marx et al., 2006a; Marx et al., 2006b; and Marx et al., 2006c. Rodent brain tissue was homogenized in 5 volumes of distilled water containing about 2200 cpm (4400 dpm/injection) of tritiated NS (Perkin Elmer, Waltham, Mass.) to detect the HPLC fraction containing the NS of interest. Deuterated ALLO (D4-ALLO, 400 pg) and deuterated PG (D4-PG, 400 pg) were used as internal standards. Supernatants were extracted three times with three volumes of ethyl acetate and dried under nitrogen prior to HPLC purification. […] The limit of NS detection with this method was 2 pg for ALLO and 10 pg for PG. Mean intra-assay coefficients of variation were 3.9% for ALLO and 3.0% for PG.
Statistical Analysis. For rat experiments utilizing chronic lithium and valproate administration, data were analyzed by ANOVA with post-hoc Dunnett tests. Data from Bcl-2 knockout mouse experiments were analyzed by unpaired t-tests.
To that end, NS levels (ALLO and PG) were determined in frontal cortex by negative ion chemical ionization gas chromatography/mass spectrometry in male Wistar Kyoto rats treated chronically with lithium, valproate, or vehicle. NS were also investigated in heterozygous Bcl-2 knockout mice.

[1] = Serum drug levels after chronic lithium or valproate in chow; conditions: chow 1.2 then 2.4 g Li2CO3/kg, four weeks; measured by atomic absorption
Excerpt: Lithium and Valproate Administration. […] Animals were fed with control rodent chow or chow containing a low dose of lithium (1.2 g Li2CO3/kg) or valproate (10 g/kg) for one week to allow the animals to slowly acclimate to the drug, and were then fed with chow containing a full dose of lithium (2.4 g Li2CO3/kg) or valproate (20 g/kg) for three weeks. On the last day of the treatment, animals were sacrificed, and trunk blood was collected to measure lithium and valproate levels in the serum.

brain = conditions: in vivo; cited from earlier work
[2] = DHEA administration in humans (50 mg); cited from earlier work
healthy male smokers = assay: Pilot study of one-time DHEA or PG after overnight abstinence from cigarettes: craving measures; type: in vivo, human; conditions: one-time 400 mg; vs. placebo
Method: Elaborating, a pilot study is provided herein, which involves administering one-time DHEA (400 mg), PG (400 mg) or placebo to healthy male smokers following overnight abstinence from cigarettes. […] Thus, neuroactive steroids can be candidate therapeutic molecules for smoking cessation.

[3] = system: subjects with schizophrenia or schizoaffective disorder
[4] = single dose of PG 175 mg; over the course of 5-8 hours; cited from earlier work
[5] = system: subjects with schizophrenia or schizoaffective disorder; assay: Randomized placebo-controlled double-blind trial of adjunctive PG: negative and cognitive symptoms (SANS, BACS, MATRICS); type: in vivo, human
Excerpt: Of 21 subjects randomized, 18 completed at least four weeks of treatment (n=9 per group). […] Increases in serum PG levels were positively correlated with cognitive improvement in the PG group, predicting both BACS (r=0.79, n=9, p=0.02; see FIG. 3A) and MATRICS (r=0.70, n=9, p=0.05; see FIG. 3B) composite scores at eight weeks. The mean BACS z-score increase for the PG group was 0.60 (vs. 0.22 for the placebo group). BACS and MATRICS assessments were correlated (r=0.74, p<0.0001).

[6] = change from baseline (Hillside AE Form), n = 9
[7] = change from baseline (Hillside AE Form), n = 9, mild in all subjects

With `[Li]` [lithium] the “mean ALLO levels in rat frontal cortex” value (rat frontal cortex; 0.75 SEM, vehicle 0.71 ng/g, post-hoc Dunnett p<0.05) was 2.42 ng/g, the “mean PG levels in rat frontal cortex” value (rat frontal cortex; ±2.95 SEM, vehicle 3.37 ng/g, post-hoc Dunnett p=0.09) was 8.19 ng/g and the serum lithium level [1] was 0.74 ±0.31 mEq/l.
In the case of `CNCCC(Oc1ccc(C(F)(F)F)cc1)c1ccccc1` (stereo not shown) [Fluoxetine], the “effect on brain ALLO levels and PG levels” value (brain) is given as “elevates”.
For `C[C@]12CC[C@H](O)CC1=CC[C@@H]1[C@@H]2CC[C@]2(C)C(=O)CC[C@@H]12` [DHEA, dehydroepiandrosterone], the “increase of ALLO” value [2] is listed as “three-fold” and the “craving measures following overnight smoking cessation” value (healthy male smokers) is listed as “attenuates craving measures”.
For `CC(=O)[C@H]1CC[C@H]2[C@@H]3CC=C4C[C@@H](O)CC[C@]4(C)[C@H]3CC[C@]12C` [PG, pregnenolone], the “AIMS, Barnes Akathisia Scale, Simpson-Angus Scale, blood pressure, pulse, or weight” value ([3]; PG administration) was “did not result in a significant change”, the tolerability ([3]; PG group, n=9) was “well-tolerated” and the “glucose level, average post-treatment” value ([3]; average baseline 117.9 mg/dl) was 119.0 mg/dL. The “cholesterol, average post-treatment” value ([3]; average baseline 185.8 mg/dl) was 164.6 mg/dL, the “QTc intervals on EKG” value ([3]; baseline (visit 1) vs. week 10 (visit 6)) was “did not negatively impact” and the Akathisia [3, 6] was 0 N (%). For the same compound, the “All Other Side Effects” value [3, 6] was 0 N (%), the “Blurred Vision” value [3, 6] was 0 N (%) and the Diarrhea [3, 6] was 0 N (%). The Drowsiness [3, 6] was 0 N (%), the Excitation/Agitation [3, 6] was 0 N (%) and the Headache [3, 6] was 0 N (%). For the same compound, the “Impaired Sexual Performance” value [3, 6] was 0 N (%), the Insomnia [3, 6] was 0 N (%) and the “Joint Pain/Stiffness” value [3, 6] was 0 N (%). For the same compound, the Malaise [3, 6] was 0 N (%), the “Nasal Congestion” value [3, 6] was 0 N (%) and the “Peripheral Edema” value [3, 6] was 0 N (%). For the same compound, the Rigidity [3, 6] was 0 N (%), the Sweating [3, 6] was 0 N (%) and the Tremor [3, 6] was 0 N (%). For the same compound, the Hypertension ([3]; change from baseline (Hillside AE Form), n = 9, mild (<145/90)) was 1 (11%)^b N (%), the “Cold Extremities” value [3, 7] was 1 (11%)^a N (%) and the “Decreased Interest in Sex” value [3, 7] was 1 (11%)^a N (%). The Dry mouth [3, 7] was 1 (11%)^a N (%), the “Muscle Pain/Stiffness” value [3, 7] was 1 (11%)^a N (%) and the Restlessness [3, 7] was 2 (22%)^a N (%). The “Disorientation (to date, address, mayor, or MD name)” value ([3]; change from baseline pre-randomization (Hillside AE Form), n = 9, mild in all subjects) was 2 (22%)^a N (%), the “increase in serum ALLO levels after PG administration” value (eight weeks of PG vs. baseline, schizophrenia subjects) was “over 5 fold” and the “PGS levels after PG administration” value (subjects with schizophrenia, baseline vs. 10 weeks) was “significantly increased”. For the same compound, the “change of serum PG levels” value [4] was “approximately doubled”, the “craving measures following overnight smoking cessation” value (healthy male smokers) was “attenuates craving measures” and the “mean change in SANS scores (improvement)” value ([5]; PG 50 to 250 mg BID for 8 weeks added to second generation antipsychotics, n=9, placebo 2.33, p=0.05) was 10.38. The “mean BACS z-score increase” value ([5]; PG group, placebo group 0.22) was 0.60.
